From the CheMixHub viscosity set

Assay: xn = mol fraction of the nth substance listed

ClC(Cl)(Cl)Cl + CCOC(C)=O
101.3 kPa
Conditions | viscosity [mPa·s]
298 K, x1 = 0.1581 | 0.517
298 K, x1 = 0.3048 | 0.57
298 K, x1 = 0.501 | 0.644
298 K, x1 = 0.6498 | 0.713
298 K, x1 = 0.8438 | 0.808
303.15 K, x2 = 0.1014 | 0.758
303.15 K, x2 = 0.1972 | 0.6991
303.15 K, x2 = 0.2976 | 0.6483
303.15 K, x2 = 0.394 | 0.6016
303.15 K, x2 = 0.4966 | 0.5603
303.15 K, x2 = 0.5986 | 0.5236
303.15 K, x2 = 0.6989 | 0.4883
303.15 K, x2 = 0.802 | 0.4572
303.15 K, x2 = 0.898 | 0.4289
318 K, x1 = 0.1518 | 0.4229
318 K, x1 = 0.3052 | 0.4655
318 K, x1 = 0.5035 | 0.5279
318 K, x1 = 0.6517 | 0.5797
318 K, x1 = 0.854 | 0.6674

CCN(CC)CC + CCC(C)O
303.15 K, 101 kPa
Conditions | viscosity [mPa·s]
x1 = 0.01087 | 2.436
x1 = 0.02221 | 2.406
x1 = 0.0326 | 2.38
x1 = 0.04176 | 2.357
x1 = 0.05247 | 2.33
x1 = 0.06249 | 2.302
x1 = 0.07262 | 2.276
x1 = 0.08419 | 2.246
x1 = 0.09512 | 2.217

CCCCCCCCCCCCCC(=O)O + CC(C)[C@@H]1CC[C@@H](C)C[C@H]1O
100 kPa, x1 = 0.2
Conditions | viscosity [mPa·s]
298.15 K | 33.99
303.15 K | 24.78
308.15 K | 18.54
313.15 K | 14.21
318.15 K | 11.11
323.15 K | 8.85

ClC(Cl)(Cl)Cl + CCCCCCCCCCO
298.15 K, 101 kPa
Conditions | viscosity [mPa·s]
x2 = 0.05 | 1.031
x2 = 0.097 | 1.224
x2 = 0.15 | 1.441
x2 = 0.2 | 1.775
x2 = 0.39 | 3.091
x2 = 0.49 | 4.012
x2 = 0.59 | 5.08
x2 = 0.8 | 7.86

FCCl + FC(F)(Cl)C(F)(F)Cl
Conditions | viscosity [mPa·s]
312.21 K, 101.13 kPa, x1 = 0.754 | 0.2322

CCC(C)(O)CC + CO
298.15 K, 101.33 kPa
Conditions | viscosity [mPa·s]
x2 = 0.1032 | 3.799
x2 = 0.2156 | 3.553
x2 = 0.3158 | 3.317
x2 = 0.4019 | 3.048
x2 = 0.5004 | 2.6
x2 = 0.6084 | 2.079
x2 = 0.7088 | 1.568
x2 = 0.8021 | 1.16
x2 = 0.9011 | 0.8027

CCCOC(C)=O + ClC(Cl)(Cl)Cl
101.33 kPa
Conditions | viscosity [mPa·s]
303.15 K, x2 = 0.0422 | 0.526
303.15 K, x2 = 0.1298 | 0.547
303.15 K, x2 = 0.2541 | 0.576
303.15 K, x2 = 0.3334 | 0.598
303.15 K, x2 = 0.488 | 0.639
303.15 K, x2 = 0.5271 | 0.657
303.15 K, x2 = 0.6005 | 0.676
303.15 K, x2 = 0.7049 | 0.716
303.15 K, x2 = 0.8748 | 0.784
303.15 K, x2 = 0.9403 | 0.815
313.15 K, x2 = 0.2073 | 0.494
313.15 K, x2 = 0.4055 | 0.541
313.15 K, x2 = 0.5078 | 0.568
313.15 K, x2 = 0.601 | 0.593
313.15 K, x2 = 0.802 | 0.661

ClC(Cl)(Cl)Cl + COCCO
viscosity [mPa·s], 100 kPa
Conditions | x1 = 0.0831 | x1 = 0.1694 | x1 = 0.2591 | x1 = 0.3523 | x1 = 0.4494 | x1 = 0.5504 | x1 = 0.6557 | x1 = 0.7655 | x1 = 0.8802
298.15 K | 1.569 | 1.49 | 1.412 | 1.335 | 1.26 | 1.186 | 1.114 | 1.043 | 0.9736
303.15 K | 1.392 | 1.328 | 1.265 | 1.202 | 1.171 | 1.079 | 1.019 | 0.9601 | 0.902
308.15 K | 1.24 | 1.188 | 1.137 | 1.111 | 1.036 | 0.9853 | 0.9601 | 0.8863 | 0.8376
313.15 K | 1.108 | 1.067 | 1.025 | 0.9841 | 0.9429 | 0.9015 | 0.8608 | 0.8201 | 0.7796
